Test results from patent US9139613B2, “Macrocyclic compounds and methods for their production” (NEUROVIVE PHARMACEUTICAL AB, priority 2011, dated 2015).
Read-outs that look alike come from different tables or passages of the source.

Experiments:
[1] = test system: HCV genotype 1b replicon in Huh5.2 cells; assay: HCV genotype 1b replicon assay using Huh5.2 cells (antiviral effect, luciferase); assay type: cell-based, Hepatitis C virus; settings: for EC50: Hepatitis C virus, Huh-5-2, genotype 1b replicon, Huh5.2 cells, 72 hours; for Selectivity index (CC50/EC50): Huh5.2 replicon assay
Description: (§1) Dilution series are prepared; each dilution series is performed in at least duplicate.
For the evaluation of antiviral effects, assay medium is aspirated and the cell monolayers are washed with PBS. The wash buffer is aspirated, 25 μL of Glo Lysis Buffer (Cat. N°. E2661, Promega) is added after which lysis is allowed to proceed for 5 min at room temperature. Subsequently, 50 μL of Luciferase Assay System (Cat. N^o. E1501, Promega) is added and the luciferase luminescence signal is quantified immediately (1000 ms integration time/well, Safire^2, Tecan). Relative luminescence units are converted to percentage of untreated controls.
(§2) The selectivity index (SI), indicative of the therapeutic window of the compound, is calculated as CC50/EC50.

[2] = Anti-metabolic effect (MTS) in Huh5.2 replicon cells; settings: human
Description: as §1, §2

[3] = target: T1, CypA Peptidyl Prolyl cis-trans Isomerase (PPlase) (Homo sapiens, UniProt P62937); assay: Inhibition of CypA PPIase activity; assay type: biochemical
T1 construct: GST (cleaved yes); made in house
Description: An alternative methodology for analysing interaction with cyclophilins is described as follows: The PPlase activity of recombinant CypA or D, produced by thrombin cleavage of GST-CypA or D, was determined by following the rate of hydrolysis of N-succinyl-Ala-Ala-Pro-Phe-p-nitroanilide by chymotrypsin. Chymotrypsin only hydrolyzes the trans form of the peptide, and hydrolysis of the cis form, the concentration of which is maximized by using a stock dissolved in trifluoroethanol containing 470 mM LiCl, is limited by the rate of cis-trans isomerization. CypA or D was equilibrated for 1 h at 5° C. with selected test article using a drug concentration range from 0.1 to 20 nM. The reaction was started by addition of the peptide, and the change in absorbance was monitored spectrophotometrically at 10 data points per second. The blank rates of hydrolysis (in the absence of CypA or D) were subtracted from the rates in the presence of CypA or D. The initial rates of the enzymatic reaction were analyzed by first-order regression analysis of the time course of the change in absorbance.

[4] = test system: HIV; assay: HIV antiviral assay using HeLa cells; assay type: cell-based, Human Immunodeficiency Virus
[5] = immunosuppressive activity; cited from earlier work
[6] = Mouse in vivo oral and iv PK; settings: male, whole blood, CD1 mice
Description: For sanglifehrin analogues, whole blood is analysed. Compounds are formulated in 5% ethanol/5% cremophor EL/90% saline for both p.o. and i.v. administration. Groups of 3 male CD1 mice are dosed with either 1 mg/kg i.v. or 5 or 10 mg/kg p.o. Blood samples (40 μL) are taken via saphenous vein, pre-dose and at 0.25, 0.5, 2, 8, and 24 hours, and diluted with an equal amount of dH20 and put on dry ice immediately. Samples are stored at −70° C. until analysis. The concentration of the compound of the invention or parent compound in the sample is determined via LCMS as follows: 20 μL of blood:H2O (1:1, v/v)/PK sample is added with 20 μL Internal standard (hydroxyl macrocycle, 6) at 100 ng/mL, 20 μL working solution/MeOH and 150 μL of ACN, vortexed for 1 minute at 1500 rpm, and centrifuged at 12000 rpm for 5 min. The supernatant is then injected into LC-MS/MS. The time-course of blood concentrations is plotted and used to derive area under the whole blood concentration-time curve (AUC—which is directly proportional to the total amount of unchanged drug that reaches the systemic circulation). These values are used to generate PK parameters where possible.
To assess the pharmacokinetics of the compounds in an in vivo setting, compounds were dosed po at 10 or 5 mg/kg and iv at 1 mg/kg to groups of CD1 mice. Pharmacokinetic analysis was carried out as described in the general methods. […]

T1 sequence (P62937 whole entry): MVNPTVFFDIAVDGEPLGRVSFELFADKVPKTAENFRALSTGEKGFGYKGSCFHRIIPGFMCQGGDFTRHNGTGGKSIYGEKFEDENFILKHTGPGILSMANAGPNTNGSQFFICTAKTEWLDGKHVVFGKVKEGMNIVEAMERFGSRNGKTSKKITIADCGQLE

SMILES | EC50 [1] [nM] | Selectivity index (CC50/EC50) [1] | CC50 at 72 h [2] [nM] | IC50 ([3]; read-out: CypA PPIase IC50) [nM] | also measured
CC(=O)CC[C@H]1C(=O)N[C@@H](C(C)C)C(=O)N[C@@H](Cc2cc(O)cc(F)c2)C(=O)N2CCCC(N2)C(=O)O[C@H](/C(C)=C/C=C/C(=O)Nc2ccccn2)C/C=C/C=C/[C@H](O)[C@H](C)[C@H]1O (stereo partly shown) [Compound 25] | 66 | >1515 | > 100000 |  | IC50 [3]: 1.15 nM
CC(=O)CC[C@H]1C(=O)N[C@@H](C(C)C)C(=O)N[C@@H](Cc2ccc(C)c(O)c2)C(=O)N2CCCC(N2)C(=O)O[C@H](/C(C)=C/C=C/C(=O)N2CCCCO2)C/C=C/C=C/[C@H](O)[C@H](C)[C@H]1O (stereo partly shown) [Compound 27] | 121 | >826 |  | 0.35 | CC50 at 72 h ([2]; Huh5.2 cells containing the HCV genotype 1b replicon): > 100000 nM
C[C@H](Cn1cnc2c(N)ncnc21)OCP(=O)(O)O [Tenofovir] |  |  |  |  | EC50 [4]: 1050 nM
CC[C@H]1C[C@H](C)[C@@]2(NC1=O)O[C@@H](C[C@H](O)[C@@H](C)CC/C=C/C=C(\C)[C@@H]1C/C=C/C=C/[C@H](O)[C@H](C)[C@@H](O)[C@@H](CCC(C)=O)C(=O)N[C@@H](C(C)C)C(=O)N[C@@H](Cc3cccc(O)c3)C(=O)N3CCC[C@H](N3)C(=O)O1)[C@H](C)[C@H](O)[C@@H]2C [Sanglifehrin A, 5, Sanglifehrin A] |  |  |  |  | less potent than Cyclosporine A [5]: 10 fold
CON(C)C(=O)/C=C/C=C(\C)[C@@H]1C/C=C/C=C/[C@H](O)[C@H](C)[C@@H](O)[C@@H](CCC(C)=O)C(=O)N[C@@H](C(C)C)C(=O)N[C@@H](Cc2cc(O)cc(F)c2)C(=O)N2CCCC(N2)C(=O)O1 (stereo partly shown) [Compound 23] | 67 | >1493 | > 100000 | 0.33 | clearance ([6]; iv at 1 mg/kg): 0.65 mL/min/kg; AUC(0-t) ([6]; po, dose level 5 mg/kg, read-out: po AUClast): 2760 ng·h/mL
